In patent publication US20080112915A1, “Dna Delivery with Gemini Cationic Surfactants” (priority 2003, published 2008):

Tests used:
[1] = cited from earlier work; for Γ × 10^6 (surface excess concentration): from Alami et al., 1993; for CMC (critical micellar concentration) / a (head group areas based on activity) / α (degree of micelle ionization): from Wettig et al., 2001; for Krafft point: from Zana; for Krafft point / distance between the cationic head groups: 2002; for distance between the cationic head groups: estimated, Chen et al.
PAM212 cells [2] = assay: Transfection of PAM212 cells with pGTmCMV.IFN-GFP plasmid using gemini cationic surfactants and DOPE; IFNγ by ELISA; type: cell-based, murine; conditions: for IFN-γ expression: PAM212 cells, pGTmCMV.IFN-GFP, plasmid-gemini surfactant charge ratio 1:10 in 1 mM DOPE vesicles; for IFNγ levels versus the other compounds with longer linkers: p<0.001; for transfection efficiency (in words): dependence on spacer length, charge ratio 1:10, DOPE
Method: The pGTmCMV.IFN-GFP plasmid was used at a concentration of 0.2 μg/well for transfection. Eight gemini surfactants were tested in this study (FIG. 1) (Wettig et al., 2001). Aqueous solutions (1.5 mM) of the gemini cationic surfactants were prepared and filtered through 0.2 μm Acrodisc® filters (Pall Gelman, Ann Arbor, Mich.). Lipid vesicles were prepared by using sonication techniques. 1,2 dioleyl-sn-glycero-phosphatidylethanolamine (DOPE) (Avanti Polar Lipids, Alabaster, Ala.) and α-tocopherol (Spectrum, Gardena Calif.) in 1:0.2 weight ratios were dissolved in 100% ethanol (Commercial Alcohols Inc., Brampton, ON) at a concentration of 10 mg lipid/mL in a round bottom flask. The solvent was evaporated in a rotary evaporator (Rotavapor RE111 BÜCHI Laboratoriums-Technik AG, Switzerland) at 100 rpm and 55° C. to deposit a thin film on the walls of the vessel. To remove traces of organic solvent, the lipid was lyophilized overnight. Glass beads were added to the flask and the lipid was resuspended at 1 μmol/mL concentration in 9.25% w/v isotonic sucrose (Spectrum, Gardena, Calif.) solution (pH 9). The suspensions were bath-sonicated (Branson 2200, Cleansonic Orange, Va.) for 3 hours at 55° C., followed by filtration through 0.45 μm Acrodisc® filters. PAM 212 murine keratinocyte cells were prepared for transfection as described earlier.
The transfection mixtures were prepared as follows: 0.2 μg of plasmid was mixed with aliquots of gemini surfactant solution to obtain plasmid DNA:gemini surfactant charge ratios of 1:5, 1:10, 1:20 or 1:40 and incubated at room temperature for 15 minutes. To this mixture, 25 μL of DOPE liposomes were added. The transfection mixtures were incubated for 30 minutes at room temperature prior to transfection and added to the cells, dropwise. The plates were incubated for periods of 5 or 6-24 hours at 37° C. in a CO2 incubator. The transfection mix was replaced with supplemented MEM and the plates further incubated for 24 hours. The supernatants were collected and stored at −20° C. As a positive control, the cells were transfected with Lipofectamine Plus™ Reagent, as described above.
ELISAs were performed using round bottom 96-well plates (Immulon II, Dynatech Laboratories, Chantilly, Va.). The plates were coated with 50 μL/well of capture antibody, rat anti-mouse IFNγ (Pharmingen, Mississauga, ON) 2 μg/mL coating buffer and incubated for 24 hours at 4° C. The wells were blocked with 1% bovine serum albumin (BSA) (New England Biolabs, Mississauga, ON) solution in PBS at room temperature for one hour. IFNγ standard (Pharmingen) of 250-2000 pg/mL concentration and was used in 1% BSA solution on plates. Protein resuspension buffer was used as a blank control. The supernatants from cell cultures and the skin and lymph homogenates, as well as the serum from mice, were diluted one in four on the plates and incubated overnight at 4° C. Biotinylated rat anti mouse IFNγ (Pharmingen) was added at […] concentration in 1% BSA solution. The plates were incubated for a further 2 h at room temperature. The streptavidin-alkaline phosphatase conjugate (Jackson Immuno Research Laboratories, Inc., West Grove, Pa.) was added in 1:5000 dilution and incubated for 1 h at room temperature, followed by addition of 4-nitrophenyl phosphate di(tris) salt 1 mg/mL in PNPP buffer (1% diethanolamine, 0.5 mM MgCl2, pH 9.8) (Sigma). Optical density of the samples was measured at 405 nm using a Benchmark Microplate Reader (BioRad, Mississauga, ON). The concentration of the IFNγ vas calculated from the standard IFNγ curve, using recombinant murine IFNγ (Pharmingen).

PAM212 cells [3] = assay: FACS of transfected PAM212 cells: GFP fluorescent cells and cell viability; type: cell-based, murine
Method: PAM212 cells were seeded on 6-well plates (Costar, Corning N.Y.) at a density of 1×10^6 cells/well density and grown to 60-80% confluency. The supplemented MEM was changed to MEM one hour prior to transfection. The transfection mixes were prepared with 1 μg pGTmCMV.IFN-GFP, using the 16-3-16 gemini cationic surfactant and DOPE liposomes at plasmid DNA:gemini cationic surfactant charge ratio of 1:5, 1:10, 1:20 or 1:40, as described earlier, keeping the concentration of the reagents constant. The cells were detached using Versene solution containing 0.05% trypsin (Sigma), pelleted at 4° C. and 1000 g for 5 minutes, washed twice with PBS and resuspended in Fa-cola (10 mM PBS pH 7.2, 0.2% gelatin, 0.03% sodium azide). Triplicate samples were pooled. The cell sorter was calibrated with non-transfected cells and 10^4 cells of each sample were counted.
The formulations were optimized for plasmid DNA:gemini surfactant charge ratio correlated with cell toxicity using the 16-3-16 compound. The optimal plasmid DNA:gemini surfactant charge ratio was determined by comparing the percentage of fluorescent cells (FIG. 5A) with cell viability (FIG. 5B). The cells were transfected with either transfection mixtures of the 16-3-16 gemini surfactant and DOPE at plasmid DNA:gemini surfactant charge ratio of 1:5, 1:10, 1:20 or 1:40, or Lipofectamine Plus™ Reagent (L), using 0.2 μg pGTmCMV.IFN-GFP, and compared to non-transfected cells (NT). Triplicate samples were pooled and 1×10^4 cells counted. […] At plasmid DNA:gemini surfactant charge ratio of 1:40 the transfection efficiency was 3.13%, however, cell viability fell to 20%. […] No fluorescence was detected in the non-transfected cells.

[4] = plasmid DNA:gemini surfactant charge ratio 1:40, with DOPE
[5] = plasmid:gemini surfactant charge ratio 1:10, with DOPE

In the case of `CCCCCCCCCCCC[N+](C)(C)CCCC[N+](C)(C)CCCCCCCCCCCC.[Br-].[Br-]` [12-4-12], the “Γ × 10^6 (surface excess concentration)” value [1] is given as 1.43 mol/m^2, the “CMC (critical micellar concentration)” value [1] is given as 1.17 ± 0.04 mM and the “a (head group areas based on activity)” value [1] is given as 1.10 nm^2/molecule. For the same molecule, the “α (degree of micelle ionization)” value [1] was 0.26 ± 0.02, the Krafft point [1] was 10.6 °C and the IFN-γ expression (PAM212 cells [2]) was 0.66 ± 0.32 ng/5 × 10^5 cells. The “IFNγ levels versus the other compounds with longer linkers” value (“IFNγ levels versus the other compounds” below) (PAM212 cells [2]) was “Significantly higher”.
In the case of `CCCCCCCCCCCC[N+](C)(C)CCC[N+](C)(C)CCCCCCCCCCCC.[Br-].[Br-]` [12-3-12], the “distance between the cationic head groups” value [1] is listed as 0.49 nm, the “Γ × 10^6 (surface excess concentration)” value [1] is listed as 1.58 mol/m^2 and the “CMC (critical micellar concentration)” value [1] is listed as 0.98 ± 0.04 mM. For the same molecule, the “a (head group areas based on activity)” value [1] was 0.98 nm^2/molecule, the “α (degree of micelle ionization)” value [1] was 0.23 ± 0.02 and the Krafft point [1] was 12.7 °C. For the same molecule, the IFN-γ expression (PAM212 cells [2]) was 1.11 ± 0.65 ng/5 × 10^5 cells, the “transfection efficiency (in words)” value (PAM212 cells [2]) was “highest activity” and the “IFNγ levels versus the other compounds” value (PAM212 cells [2]) was “Significantly higher”.
In the case of `CCCCCCCCCCCC[N+](C)(C)CCCCCCCCCCCC[N+](C)(C)CCCCCCCCCCCC` [12-12-12], the “Γ × 10^6 (surface excess concentration)” value [1] is listed as 0.73 mol/m^2, the “CMC (critical micellar concentration)” value [1] is listed as 0.36 ± 0.03 mM and the “a (head group areas based on activity)” value [1] is listed as 2.14 nm^2/molecule. For the same molecule, the “α (degree of micelle ionization)” value [1] was 0.56 ± 0.08, the Krafft point [1] was 13.6 °C and the IFN-γ expression (PAM212 cells [2]) was 0.33 ± 0.16 ng/5 × 10^5 cells.
For `CCCCCCCCCCCCCCCC[N+](C)(C)CCC[N+](C)(C)CCCCCCCCCCCCCCCC` [16-3-16], the cell viability (PAM212 cells [3]; [4]) was 20%, the “transfection efficiency (fluorescent cells)” value (PAM212 cells [3]; [4]) was 3.13% and the cell viability (PAM212 cells [3]; [5]) was 74%. The “percentage of fluorescent cells” value (PAM212 cells [3]; [5]) was 2.36%, the “Γ × 10^6 (surface excess concentration)” value [1] was 1.08 mol/m^2 and the “CMC (critical micellar concentration)” value [1] was 0.026 ± 0.001 mM. The “a (head group areas based on activity)” value [1] was 1.02 nm^2/molecule, the “α (degree of micelle ionization)” value [1] was 0.35 ± 0.02 and the Krafft point [1] was 42 °C. For the same molecule, the IFN-γ expression (PAM212 cells [2]) was 1.63 ± 1.37 ng/5 × 10^5 cells, the “transfection efficiency (in words)” value (PAM212 cells [2]) was “highest activity” and the “IFNγ levels versus the other compounds” value (PAM212 cells [2]) was “Significantly higher”.
For `CCCCCCCCCCCC[N+](C)(C)CCCCCCCC[N+](C)(C)CCCCCCCCCCCC.[Br-].[Br-]` [12-8-12], the “Γ × 10^6 (surface excess concentration)” value [1] is listed as 0.94 mol/m^2, the “CMC (critical micellar concentration)” value [1] is listed as 0.84 ± 0.03 mM and the “a (head group areas based on activity)” value [1] is listed as 1.78 nm^2/molecule. The “α (degree of micelle ionization)” value [1] was 0.46 ± 0.04, the Krafft point [1] was <0 °C and the IFN-γ expression (PAM212 cells [2]) was 0.24 ± 0.12 ng/5 × 10^5 cells.
For `CCCCCCCCCCCC[N+](C)(C)CCCCCCCCCC[N+](C)(C)CCCCCCCCCCCC.[Br-].[Br-]` [12-10-12], the “Γ × 10^6 (surface excess concentration)” value [1] is given as 0.75 mol/m^2, the “CMC (critical micellar concentration)” value [1] is given as 0.62 ± 0.03 mM and the “a (head group areas based on activity)” value [1] is given as 2.16 nm^2/molecule. For the same molecule, the “α (degree of micelle ionization)” value [1] was 0.51 ± 0.06, the Krafft point [1] was <0 °C and the IFN-γ expression (PAM212 cells [2]) was 0.29 ± 0.10 ng/5 × 10^5 cells.
In the case of `CCCCCCCCCCCC[N+](C)(C)CCCCCCCCCCCCCCCC[N+](C)(C)CCCCCCCCCCCC.[Br-].[Br-]` [12-16-12], the “Γ × 10^6 (surface excess concentration)” value [1] is listed as 0.83 mol/m^2, the “CMC (critical micellar concentration)” value [1] is listed as 0.12 ± 0.01 mM and the “a (head group areas based on activity)” value [1] is listed as 1.44 nm^2/molecule. The “α (degree of micelle ionization)” value [1] was 0.59 ± 0.08, the Krafft point [1] was 24.3 °C and the IFN-γ expression (PAM212 cells [2]) was 0.49 ± 0.19 ng/5 × 10^5 cells.
For `CCCCCCCCCCCC[N+](C)(C)CCCCCC[N+](C)(C)CCCCCCCCCCCC.[Br-].[Br-]` [12-6-12], the “distance between the cationic head groups” value [1] is listed as 0.91 nm, the “Γ × 10^6 (surface excess concentration)” value [1] is listed as 1.16 mol/m^2 and the “CMC (critical micellar concentration)” value [1] is listed as 1.09 ± 0.04 mM. For the same molecule, the “a (head group areas based on activity)” value [1] was 1.40 nm^2/molecule, the “α (degree of micelle ionization)” value [1] was 0.34 ± 0.02 and the Krafft point [1] was <0 °C. The IFN-γ expression (PAM212 cells [2]) was 0.48 ± 0.17 ng/5 × 10^5 cells.
In the case of `CCCCCCCC/C=C\CCCCCCCC(=O)OC[C@H](COP(=O)(O)OCCN)OC(=O)CCCCCCC/C=C\CCCCCCCC` [DOPE, 1,2 dioleyl-sn-glycero-phosphatidylethanolamine, reference compound], the “IFNγ detection after transfection with single component alone” value (PAM212 cells [2]; agent alone, or plasmid without transfection agents) is reported as “No IFNγ was detected”.
